Several values for one entry are separate records, joined by “and”; a condition that tells them apart may be missing. Equal entries are not always repeated. Toxic doses and inconclusive results are not listed. Rule as the data show it: active = T/C of 150% or more; inactive = T/C below 125%.
Test system: L1210 leukemia ip in BDF1 mice, survival T/C
Test: NCI In Vivo Anticancer Drug Screen. Data for tumor model L1210 Leukemia (intraperitoneal) in B6D2F1 (BDF1) mice
Conditions: endpoint: mean survival time, higher = longer survival
Procedure, shortened: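 Tumor was transplanted into mice, which were then dosed with test compound or vehicle alone. Survival was recorded for each group, and the treated figure was expressed relative to the control figure.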

[1] = dose: 100.0 mg/kg/injection, schedule: Q01DX009 (ip), vehicle: Klucel (hydroxypropylcellulose) (HPC)
[2] = dose: 100.0 mg/kg/injection, schedule: Q04DX003 (ip), vehicle: Klucel (hydroxypropylcellulose) (HPC)
[3] = dose: 200.0 mg/kg/injection, schedule: Q01DX009 (ip), vehicle: Klucel (hydroxypropylcellulose) (HPC)
[4] = dose: 200.0 mg/kg/injection, schedule: Q04DX003 (ip), vehicle: Klucel (hydroxypropylcellulose) (HPC)
[5] = dose: 400.0 mg/kg/injection, schedule: Q04DX003 (ip), vehicle: Klucel (hydroxypropylcellulose) (HPC)
[6] = dose: 400.0 mg/kg/injection, schedule: Q01DX009 (ip), vehicle: Klucel (hydroxypropylcellulose) (HPC)
[7] = dose: 100.0 mg/kg/injection, schedule: Q04DX003 (ip), vehicle: saline with Tween-80
[8] = dose: 200.0 mg/kg/injection, schedule: Q04DX003 (ip), vehicle: saline with Tween-80
[9] = dose: 50.0 mg/kg/injection, schedule: Q01DX001 (ip), vehicle: saline
[10] = dose: 100.0 mg/kg/injection, schedule: Q01DX001 (ip), vehicle: saline
[11] = dose: 200.0 mg/kg/injection, schedule: Q01DX001 (ip), vehicle: saline
[12] = dose: 400.0 mg/kg/injection, schedule: Q01DX001 (ip), vehicle: saline
[13] = dose: 400.0 mg/kg/injection, schedule: Q04DX003 (ip), vehicle: saline with Tween-80
[14] = dose: 100.0 mg/kg/injection, schedule: Q01DX009 (ip), vehicle: saline with Tween-80
[15] = dose: 200.0 mg/kg/injection, schedule: Q01DX009 (ip), vehicle: saline with Tween-80
[16] = dose: 100.0 mg/kg/injection, schedule: Q01DX001 (ip), vehicle: carboxymethylcellulose (CMC)
[17] = dose: 200.0 mg/kg/injection, schedule: Q01DX001 (ip), vehicle: carboxymethylcellulose (CMC)
[18] = dose: 400.0 mg/kg/injection, schedule: Q01DX001 (ip), vehicle: carboxymethylcellulose (CMC)
[19] = dose: 400.0 mg/kg/injection, schedule: Q01DX009 (ip), vehicle: saline with Tween-80

Measured: T/C

CCOC(=O)c1ccc(C(=O)O)[n+]([O-])c1
inactive: [1] 100 % of control | [2] 92 % of control | [3] 95 % of control | [4] 100 % of control | [5] 96 % of control

CCCCOC(=O)c1ccc(NC(=S)NCCc2ccccc2)cc1
inactive: [1] 103 % of control | [3] 98 % of control | [6] 95 % of control

CCCCCCCCCCN1CCC(N2CCCCC2)CC1
inactive: dose: 25.0 mg/kg/injection, schedule: Q04DX002 (ip), vehicle: saline 102 % of control | dose: 50.0 mg/kg/injection, schedule: Q04DX002 (ip), vehicle: saline 102 % of control | dose: 100.0 mg/kg/injection, schedule: Q04DX002 (ip), vehicle: saline 98 % of control and 91 % of control

c1coc(-c2cnc3ccccc3n2)c1
inactive: dose: 75.0 mg/kg/injection, schedule: Q01DX001 (ip), vehicle: carboxymethylcellulose (CMC) 109 % of control | dose: 150.0 mg/kg/injection, schedule: Q01DX001 (ip), vehicle: carboxymethylcellulose (CMC) 91 % of control

NC(=S)c1c(N)ncn1C1OC(CO)C(O)C1O (stereo not given)
inactive: dose: 100.0 mg/kg/injection, schedule: Q01DX005 (ip), vehicle: saline 92 % of control | dose: 200.0 mg/kg/injection, schedule: Q01DX005 (ip), vehicle: saline 90 % of control

NC(N)=N/N=C/c1ccc2c(c1)CCC2
inactive: dose: 12.5 mg/kg/injection, schedule: Q04DX003 (ip), vehicle: saline 101 % of control | dose: 25.0 mg/kg/injection, schedule: Q04DX003 (ip), vehicle: saline 97 % of control | dose: 50.0 mg/kg/injection, schedule: Q04DX003 (ip), vehicle: saline 97 % of control

CCOC(=O)C1=CN=NC1=[N+]=[N-]
inactive: dose: 10.0 mg/kg/injection, schedule: Q01DX001 (ip), vehicle: saline 96 % of control | dose: 20.0 mg/kg/injection, schedule: Q01DX001 (ip), vehicle: saline 102 % of control

CCC(CC)OC(=O)Nc1cccc(OC(=O)NC)c1
inactive: [7] 104 % of control | [8] 95 % of control

N#CCC(=O)N1CCCC1
inactive: [9] 95 % of control | [10] 104 % of control | [11] 98 % of control | [12] 95 % of control

CCOC(=O)Nc1cc2c(c(=O)[nH]1)N=C(CN(C)c1ccc(C(=O)OC)cc1)CN2
inactive: dose: 100.0 mg/kg/injection, schedule: Q01DX001 (ip), vehicle: alkali diluted with saline 104 % of control | dose: 200.0 mg/kg/injection, schedule: Q01DX001 (ip), vehicle: alkali diluted with saline 96 % of control | dose: 400.0 mg/kg/injection, schedule: Q01DX001 (ip), vehicle: alkali diluted with saline 102 % of control

C1CCC2C(C1)CCCC2C1C2C3CCCCC3CCC2C2CCC3CCCCC3C21 (stereo not given)
inactive: [7] 91 % of control | [8] 91 % of control | [13] 88 % of control

CCOc1c(Br)cc(Br)cc1/C=N/NS(=O)(=O)c1ccc(C)cc1
inactive: dose: 50.0 mg/kg/injection, schedule: Q01DX009 (ip), vehicle: Klucel (hydroxypropylcellulose) (HPC) 103 % of control | [1] 105 % of control | [2] 101 % of control | [4] 109 % of control | [5] 92 % of control

O=NN(CCCl)C(=O)c1cc(Cl)cc(Cl)c1
inactive: dose: 12.5 mg/kg/injection, schedule: Q01DX009 (ip), vehicle: saline with Tween-80 115 % of control | dose: 25.0 mg/kg/injection, schedule: Q01DX009 (ip), vehicle: saline with Tween-80 117 % of control | dose: 50.0 mg/kg/injection, schedule: Q01DX009 (ip), vehicle: saline with Tween-80 111 % of control and 91 % of control | [14] 93 % of control | [15] 99 % of control

CCSC(SCC)C(SCC)C(OC(=O)c1ccccc1)C(OC(=O)c1ccccc1)C(COC(=O)c1ccccc1)OC(=O)c1ccccc1 (stereo not given)
inactive: [16] 114 % of control | [17] 112 % of control | [18] 93 % of control

O=CN/N=C/c1ccc2c(c1)CCC2
inactive: [14] 97 % of control | [15] 102 % of control | [19] 98 % of control

CCCCN(C)N=Nc1ccc(OCC(=O)NN)cc1
inactive: dose: 10.0 mg/kg/injection, schedule: Q01DX Z (ip), vehicle: carboxymethylcellulose (CMC) 93 % of control | dose: 15.0 mg/kg/injection, schedule: Q01DX Z (ip), vehicle: carboxymethylcellulose (CMC) 96 % of control | dose: 20.0 mg/kg/injection, schedule: Q01DX Z (ip), vehicle: carboxymethylcellulose (CMC) 91 % of control | dose: 30.0 mg/kg/injection, schedule: Q01DX Z (ip), vehicle: carboxymethylcellulose (CMC) 114 % of control | dose: 60.0 mg/kg/injection, schedule: Q01DX Z (ip), vehicle: carboxymethylcellulose (CMC) 95 % of control

CCC1CCCCC1=O (stereo not given)
inactive: [14] 98 % of control | [7] 110 % of control | [15] 97 % of control | [8] 111 % of control | [19] 101 % of control | [13] 94 % of control

NC1=NC(c2ccccc2)N(c2ccccc2Cl)C(N)=N1 (stereo not given)
inactive: dose: 75.0 mg/kg/injection, schedule: Q01DX001 (ip), vehicle: Klucel (hydroxypropylcellulose) (HPC) 97 % of control | dose: 150.0 mg/kg/injection, schedule: Q01DX001 (ip), vehicle: Klucel (hydroxypropylcellulose) (HPC) 94 % of control

CC1C(C)(C)C1(Cl)Cl (stereo not given)
inactive: dose: 50.0 mg/kg/injection, schedule: Q01DX009 (ip), vehicle: saline sonified 92 % of control | dose: 100.0 mg/kg/injection, schedule: Q01DX009 (ip), vehicle: saline sonified 92 % of control | dose: 200.0 mg/kg/injection, schedule: Q01DX009 (ip), vehicle: saline sonified 101 % of control

Nc1cc(Cl)ccc1S(N)(=O)=O
inactive: dose: 100.0 mg/kg/injection, schedule: Q01DX009 (ip), vehicle: saline 92 % of control | [7] 105 % of control | dose: 200.0 mg/kg/injection, schedule: Q01DX009 (ip), vehicle: saline 100 % of control | [8] 105 % of control | dose: 400.0 mg/kg/injection, schedule: Q01DX009 (ip), vehicle: saline 111 % of control | [13] 108 % of control

CN1CCN=C1c1ccc(NC(=O)c2ccc(C(=O)Nc3ccc(C4=NCCN4C)cc3)c(Cl)c2)cc1
inactive: dose: 1.5 mg/kg/injection, schedule: Q01DX Z (ip), vehicle: water 101 % of control | dose: 3.0 mg/kg/injection, schedule: Q01DX Z (ip), vehicle: water 103 % of control | dose: 6.0 mg/kg/injection, schedule: Q01DX Z (ip), vehicle: water 119 % of control

COc1cc2c(cc1OC)C1CNC(=O)C1C(c1ccccc1)C2 (stereo not given)
inactive: dose: 50.0 mg/kg/injection, schedule: Q04DX003 (ip), vehicle: Klucel (hydroxypropylcellulose) (HPC) 103 % of control | [1] 100 % of control | [2] 98 % of control | [3] 102 % of control | [4] 95 % of control | [6] 94 % of control | [5] 98 % of control

COc1cc2nccc3c4ccccc4n(c1=O)c23
inactive: [9] 97 % of control | [10] 101 % of control | [11] 101 % of control | [12] 97 % of control

NC(=O)C(NC(=O)Nc1ccccc1)C(N)=O
inactive: dose: 12.5 mg/kg/injection, schedule: Q04DX003 (ip), vehicle: gum acacia 100 % of control | dose: 25.0 mg/kg/injection, schedule: Q04DX003 (ip), vehicle: gum acacia 97 % of control | dose: 50.0 mg/kg/injection, schedule: Q04DX003 (ip), vehicle: gum acacia 92 % of control | dose: 100.0 mg/kg/injection, schedule: Q04DX003 (ip), vehicle: gum acacia 98 % of control

CC(C1CCCCC1)C(C#N)C(=O)NC(N)=O (stereo not given)
inactive: [9] 97 % of control | [10] 92 % of control | [11] 95 % of control | [12] 90 % of control

N#Cc1cc(Cl)cc(Cl)c1
inactive: [16] 98 % of control | [17] 104 % of control | [18] 93 % of control

CCOC(=O)/C(N=O)=C(\O)c1ccc2ccccc2n1
inactive: dose: 25.0 mg/kg/injection, schedule: Q01DX009 (ip), vehicle: water 115 % of control | dose: 50.0 mg/kg/injection, schedule: Q01DX009 (ip), vehicle: water 101 % of control | dose: 100.0 mg/kg/injection, schedule: Q01DX009 (ip), vehicle: water 108 % of control | dose: 200.0 mg/kg/injection, schedule: Q01DX009 (ip), vehicle: water 89 % of control | dose: 400.0 mg/kg/injection, schedule: Q01DX009 (ip), vehicle: water 94 % of control

Source: PubChem BioAssay AID248 (DTP/NCI, 2004)
